The values that follow come from patent publication US6197775A, “Phosphonate nucleotide derivatives” (Mitsubishi Chemical Corporation, priority 1995, dated 2001).

Read-outs that look alike come from different tables or passages of the source.

For series [1], the system named is polychromatic erythrocytes (bone marrow). In words: Micronucleus test using mice. In kind it is in vivo. The procedure: Micronucleus test using mice
A test compound was administered to mice at a dose of 1,000 or 2,000 mg/kg, and bone marrow smear preparations were prepared at 24, 30, 48, and 72 hours after the administration. For a negative control group (0.5% aqueous solution of tragacanth gum) and a positive control group (2 mg/kg of mitomycin C (MMC) was administered as a single intraperitoneal administration), bone marrow smears were prepared at 24 hours after the administration. The samples were stained by the Giemsa's staining method in an ordinary manner, and then 2,000 polychromatic erythrocytes per animal were examined to determine the number of cells having micronuclei and frequency of appearance of micronuclei (%). As statistic analysis, significant difference test was carried out for polychromatic erythrocytes containing micronuclei between the negative control group and the group administered with a test compound according to the stochastic method of Kasternbaum and Bowman.
For comparison, the same test was carried out by using an unsubstituted 6-amino derivative, i.e., 9-[2-[bis(2,2,2-trifluoroethyl)phosphonylmethoxy]ethyl]-2,6-diaminopurine (abbreviated as "DAP"), and PMEA bis(pivaloyloxymethyl ester). Compound Nos. in Table 4 correspond to those in Table 1.

The test system of a further series is Hepatitis B virus (HBV). As to the kind of experiment: Activity for inhibiting proliferation of Hepatitis B virus (HBV): inhibition of HBV-DNA synthesis in HB611 cells. In kind it is cell-based. The settings on record: read-out: Inhibitory ratio against HBV-DNA synthesis (%). The procedure:
Activity for inhibiting proliferation of Hepatitis B virus (HBV)
Inhibitory activity of the compounds of the present invention against proliferation of HBV was measured by a known method (K. Ueda, et al., VIROLOGY, 169, 213-216 (1989)).
(§1) 2×10^4 HB611 cells (recombinant human liver cancer cells producing HBV) were cultured in Dulbecco's ME medium containing 10% fetal bovine serum, streptomycin (100 μg/ml), penicillin (100 IU/ml), and Geneteicin (trade name of an antibiotic sold by Life Technologies, 0.2 mg/ml) at 37° C. The medium was changed with fresh medium on the second day and fifth day of the culture, and then changed with a medium containing a test compound at a final concentration of 10 μM or 1 μM on the 8th, 11th and 14th days of the culture. DNA of the cells were collected on the 17th day of the culture. Amounts of HBV-DNA in the cells were measured by Southern blotting method and inhibitory rates against HBV-DNA synthesis were determined. Concentrations of compounds required for 50% death of HB611 cells were determined by cell titer 96 (trademark of Promega Corp.). As references, the same test was carried out by using PMEA and its bis(pivaloyloxymethyl ester). Compound Nos. in Table 2 correspond to those in Table 1.

Another series relates to HB611 cells. In words: Cytotoxicity for HB611 cells (cell titer 96). Format: cell-based, human. The following applies: 50% death of HB611 cells; read-out: 50% Cytotoxic concentration for HB611 cells. The protocol:
as §1

Series [2] in a line: Cytotoxicity for HB611 cells (cell titer 96). The following applies: human; 50% death of HB611 cells; read-out: 50% Cytotoxic concentration for HB611 cells. In kind it is cell-based, human. The procedure:
as §1

The test system of series [3] is herpes simplex viruses type-1 (HSV-1). The settings on record: literature (Yokota et al.; Votruba et al.); cited from earlier work.
The subject of series [4] is herpes simplex viruses type-2 (HSV-2). The settings on record: literature (Yokota et al.; Votruba et al.); cited from earlier work.
Series [5] relates to human hepatitis B virus (HBV). The following applies: literature (Yokota et al.; Votruba et al.); cited from earlier work.
The test system of series [6] is human immunodeficiency virus (HIV). The settings on record: literature (Yokota et al.; Votruba et al.); cited from earlier work.
A further series has as its system HBV. As to the kind of experiment: Inhibitory effect on HBV proliferation in a serum of a rat orally administered with a test compound (HB611 cells cultured with 5% serum). In kind it is cell-based, Hepatitis B virus. The settings on record: 5% serum in medium. The protocol: Inhibitory effect on HBV proliferation in a serum of a rat orally administered with a test compound
A group consisting of three rats was orally administered with a test compound at a dose of 1 g/kg or 0.3 g/kg by a single oral administration. Blood of the rats was collected one hour after the administration and serum samples were prepared.
2×10^4 HB611 cells were cultured in Dulbecco's ME medium containing 10% fetal bovine serum, streptomycin (100 μg/ml), penicillin (100 IU/ml) and Geneteicin (0.2 mg/ml) at 37° C. The medium was changed with fresh medium on the second day and fifth day of the culture, and then changed with a medium containing 5% of the above serum (the serum of the rat orally administered with a test compound) on the 8th, 11th and 14th days of the culture. DNA of the cells were collected on the 17th day of the culture. Amounts of HBV-DNA in the cells were measured by Southern blotting method, and inhibitory ratios against […] synthesis in the cells were determined. As a reference, the same test was carried out by using PMEA. Compound Nos. in Table 3 correspond to those in Table 1.

The mark [7] stands for this setting: 408 h, 1 μM, HB611 cells, DNA collected on 17th day.
Where [8] appears, read: 408 h, 10 μM, HB611 cells, DNA collected on 17th day.
Setting [9] is: serum of rats 1 h after single oral dose of 0.3 g/kg.

In the case of `CC(C)(C)C(=O)OCOP(=O)(COCCn1cnc2c(N)ncnc21)OCOC(=O)C(C)(C)C` [PMEA ester, PMEA bis(pivaloyloxymethyl ester), reference compound], the “Test result (micronucleus test)” value in series [1] (mice, 1,000 or 2,000 mg/kg, bone marrow at 24, 30, 48, and 72 hours) is “Positive”. In addition, in the series on Hepatitis B virus (HBV) (HB611, 408 h), the inhibition at 1 µM came out at 63.7% and the inhibition at 10 µM amounted to 90%. Further, the CC50 in the series with HB611 cells is 0.018 mM.

With `CN(c1ccccc1)c1nc(N)nc2c1ncn2CCOCP(=O)(OCC(F)(F)F)OCC(F)(F)F` [Compound 621, 2-amino-9-[2-[bis(2,2,2-trifluoroethyl)phosphonyl-methoxy]ethyl]-6-(methylphenylamino)purine], the inhibition at 1 µM with Hepatitis B virus (HBV) (setting [7]) came out at 68%. Besides, in series [2], the CC50 is over 1 mM.

For the molecule `Nc1nc(N)c2ncn(CCOCP(=O)(O)O)c2n1` [PMDAP, 9-(2-phosphonylmethoxy)ethyl-2,6-diaminopurine], the “effectiveness against HSV-1” value in series [3] is “effective”. Besides, in series [4], the “effectiveness against HSV-2” value is listed as “effective”. In addition, in series [5], the “effectiveness against HBV” value is “effective”. Further, in [6], the “effectiveness against HIV” value is “effective”.

Regarding `Nc1ncnc2c1ncn2CCOCP(=O)(O)O` [PMEA, 9-(2-phosphonylmethoxy)ethyladenine], the “effectiveness against HSV-1” value in series [3] is reported as “effective”. Besides, the “effectiveness against HSV-2” value in series [4] was “effective”. Besides, the “effectiveness against HBV” value in [5] is “effective”. For the same molecule, the “effectiveness against HIV” value in series [6] is on record as “effective”. Further, in the series on Hepatitis B virus (HBV) (HB611, 408 h), the inhibition at 10 µM worked out at 83%. In the series on HBV (serum of rats 1 h after single oral dose of 1 g/kg), the “Inhibitory ratio against HBV-DNA synthesis (%)” value (“Inhibitory ratio … (%)” for short) was 35.5%.

Turning to `CCN(CC)c1nc(N)nc2c1ncn2CCOCP(=O)(OCC(F)(F)F)OCC(F)(F)F` [Compound 16, 2-amino-9-[2-[bis(2,2,2-trifluoroethyl)phosphonylmethoxy]-ethyl]-6-(diethylamino)purine], the inhibition at 10 µM with Hepatitis B virus (HBV) (setting [8]) was determined as 100%. In series [2], the CC50 is over 1 mM.

Take `Nc1nc(N)c2ncn(CCOCP(=O)(OCC(F)(F)F)OCC(F)(F)F)c2n1` [DAP, 9-[2-[bis(2,2,2-trifluoroethyl)phosphonylmethoxy]ethyl]-2,6-diaminopurine, reference compound]: the “Test result (micronucleus test)” value in [1] (mouse, in vivo) was “Positive”.

`CCCCN(C)c1nc(N)nc2c1ncn2CCOCP(=O)(OCC(F)(F)F)OCC(F)(F)F` [Compound 15]: the inhibition at 1 µM with Hepatitis B virus (HBV) (setting [7]) was determined as 86.7%. Moreover, the CC50 in [2] was over 1 mM.

With `CN(C)c1nc(N)nc2c1ncn2CCOCP(=O)(OCC(F)(F)F)OCC(F)(F)F` [Compound 11, 2-amino-9-[2-[bis(2,2,2-trifluoroethyl)phosphonylmethoxy]ethyl]-6-(dimethylamino)purine], in series [1] (mouse, in vivo), the “Test result (micronucleus test)” value was “Negative”. The inhibition at 1 µM in the series on Hepatitis B virus (HBV) (setting [7]) worked out at 92%. For the same molecule, the inhibition at 10 µM in the series on Hepatitis B virus (HBV) (setting [8]) came to 100%. For the same molecule, the CC50 in series [2] was over 1 mM. The “Inhibitory ratio … (%)” value with HBV (setting [9]) is given as 95.6%.

Take `CN(C)c1nc(N)nc2c1nnn2CCOCP(=O)(OCC(F)(F)F)OCC(F)(F)F` [Compound 21, 2-amino-8-aza-9-[2-[bis(2,2,2-trifluoroethyl)phosphonyl-methoxy]ethyl]-6-(dimethylamino)purine]: in the series on Hepatitis B virus (HBV) (setting [8]), the inhibition at 10 µM is 100%. Also, the CC50 in series [2] was over 1 mM.

With `CCCN(C)c1nc(N)nc2c1ncn2CCOCP(=O)(OCC(F)(F)F)OCC(F)(F)F` [Compound 13, 2-amino-9-[2-[bis(2,2,2-trifluoroethyl)phosphonylmethoxy]-ethyl]-6-(methyl-1-propylamino)purine], in [1] (mouse, in vivo), the “Test result (micronucleus test)” value is “Negative”. Moreover, in the series on Hepatitis B virus (HBV) (setting [8]), the inhibition at 10 µM was 100%. Further, in series [2], the CC50 was over 1 mM. Besides, in the series on HBV (setting [9]), the “Inhibitory ratio … (%)” value stood at 100%.
